# Patent US8183262B2, “Pyridine derivatives as mGluR2 antagonists” (Hoffmann-La Roche Inc., priority 2007, dated 2012)
row,Structure (SMILES),melting point
1,"Cc1cc(-c2ccc(Cl)cc2)nc(-c2cccc(-c3cccc(S(N)(=O)=O)c3)c2)n1 [Example 166, 3′-[4-(4-Chloro-phenyl)-6-methyl-pyrimidin-2-yl]-biphenyl-3-sulfonic acid amide]",221 °C
2,"Cc1cc(-c2ccc(C(F)(F)F)cc2)cc(-c2ccnc(-c3ccc(S(N)(=O)=O)s3)n2)n1 [Example 315, 5-{4-[6-Methyl-4-(4-trifluoromethyl-phenyl)-pyridin-2-yl]-pyrimidin-2-yl}-thiophene-2-sulfonic acid amide]",> 250 °C
3,"Cc1nc(-c2cn(-c3cc(-c4ccc(C(F)(F)F)cc4)cc(C(F)(F)F)n3)cn2)sc1S(=O)(=O)NC(C)(C)C [Example 300, 4-Methyl-2-{1-[6-trifluoromethyl-4-(4-trifluoromethyl-phenyl)-pyridin-2-yl]-1H-imidazol-4-yl}-thiazole-5-sulfonic acid tert-butylamide]",260 °C
4,"COc1ccc(CNS(=O)(=O)c2cccc(-c3cccc(-c4cc(-c5ccc(C(F)(F)F)cc5)cc(C)n4)n3)c2)cc1 [Example 432, N-(4-Methoxy-benzyl)-3-[6′-methyl-4′-(4-trifluoromethyl-phenyl)-[2,2′]bipyridinyl-6-yl]-benzenesulfonamide]",126 °C (dec.)
5,"Cc1cc(-c2ccc(C(F)(F)F)cc2)cc(-c2cccc(-c3cccc(S(=O)(=O)N4CCN(C)CC4)c3)n2)n1 [Example 370, 6-Methyl-6′-[3-(4-methyl-piperazine-1-sulfonyl)-phenyl]-4-(4-trifluoromethyl-phenyl)-[2,2′]bipyridinyl]",167 °C (dec.)
6,"Nc1ccc(-c2cc(-c3nc(-c4ccc(C(F)(F)F)cc4)cc(C(F)(F)F)n3)ccn2)cn1 [Example 31, 4-[4-Trifluoromethyl-6-(4-trifluoromethyl-phenyl)-pyrimidin-2-yl]-[2,3′]bipyridinyl-6′-ylamine]",226 °C
7,"Nc1ccc(-c2cn(-c3nccc(-c4ccc(Cl)cc4)n3)cn2)cn1 [Example 52, 5-{1-[4-(4-Chloro-phenyl)-pyrimidin-2-yl]-1H-imidazol-4-yl}-pyridin-2-ylamine]",188 to 190 °C
8,"CS(=O)(=O)c1cccc(-c2cn(-c3nc(-c4ccc(C(F)(F)F)cc4)cc(C(F)(F)F)n3)cn2)c1 [Example 217, 2-[4-(3-Methanesulfonyl-phenyl)-imidazol-1-yl]-4-trifluoromethyl-6-(4-trifluoromethyl-phenyl)-pyrimidine]",231 °C
9,"Cc1cc(-c2ccc(Cl)cc2)nc(-c2ccnc(-c3ccc(S(N)(=O)=O)s3)c2)n1 [Example 192, 5-{4-[4-(4-Chloro-phenyl)-6-methyl-pyrimidin-2-yl]-pyridin-2-yl}-thiophene-2-sulfonic acid amide]",232.5 °C
10,"O=S(=O)(c1cccc(-c2cccc(-c3nc(-c4ccc(C(F)(F)F)cc4)cc(C(F)(F)F)n3)c2)c1)N(CCO)CCO [Example 392, 3′-[4-Trifluoromethyl-6-(4-trifluoromethyl-phenyl)-pyrimidin-2-yl]-biphenyl-3-sulfonic acid bis-(2-hydroxy-ethyl)-amide]",111.5 °C
11,"Nc1ccc(-c2cccc(-c3nc(-c4ccc(Cl)c(Cl)c4)cc(C(F)(F)F)n3)c2)cn1 [Example 97, 5-{3-[4-(3,4-Dichloro-phenyl)-6-trifluoromethyl-pyrimidin-2-yl]-phenyl}-pyridin-2-ylamine]",179 °C
12,"CCC(=O)NS(=O)(=O)c1ccc(-c2cc(-c3nc(-c4ccc(C(F)(F)F)cc4)cc(C(F)(F)F)n3)ccn2)s1 [Example 375, 5-{4-[4-Trifluoromethyl-6-(4-trifluoromethyl-phenyl)-pyrimidin-2-yl]-pyridin-2-yl}-thiophene-2-sulfonic acid propionyl-amide]",257 °C
13,"NS(=O)(=O)c1ccc(-c2cccc(-c3nc(-c4ccc(Cl)cc4)cc(C(F)(F)F)n3)c2)s1 [Example 174, 5-{3-[4-(4-Chloro-phenyl)-6-trifluoromethyl-pyrimidin-2-yl]-phenyl}-thiophene-2-sulfonic acid amide]",226 °C
14,"Nc1ccc(-c2cnn(-c3nc(-c4ccc(C(F)(F)F)cc4)cc(C(F)(F)F)n3)c2)cn1 [Example 19, 5-{1-[4-Trifluoromethyl-6-(4-trifluoromethyl-phenyl)-pyrimidin-2-yl]-1H-pyrazol-4-yl}-pyridin-2-ylamine]",206 °C
15,"FC(F)(F)c1ccc(-c2cc(C(F)(F)F)nc(-n3cnc(-c4cccnc4)n3)n2)cc1 [Example 149, 2-(3-Pyridin-3-yl-[1,2,4]triazol-1-yl)-4-trifluoromethyl-6-(4-trifluoromethyl-phenyl)-pyrimidine]",190 °C
16,"Cc1cc(-c2cc(C(F)(F)F)nc(-n3cnc(-c4ccc(S(N)(=O)=O)s4)c3)n2)ccc1C(F)(F)F [Example 209, 5-{1-[4-(3-Methyl-4-trifluoromethyl-phenyl)-6-trifluoromethyl-pyrimidin-2-yl]-1H-imidazol-4-yl}-thiophene-2-sulfonic acid amide]",260 °C
17,"COCC(=O)NS(=O)(=O)c1cccc(-c2cccc(-c3cc(-c4ccc(C(F)(F)F)cc4)cc(C)n3)n2)c1 [Example 462, N-(2-Methoxy-acetyl)-3-[6′-methyl-4′-(4-trifluoromethyl-phenyl)-[2,2′]bipyridinyl-6-yl]-benzenesulfonamide]",188 °C

row,Structure (SMILES),melting point
1,"Cc1cc(-c2ccc(C(F)(F)F)cc2)nc(-n2cnc(-c3ccc(N)nc3)c2)n1 [Example 46, 5-{1-[4-Methyl-6-(4-trifluoromethyl-phenyl)-pyrimidin-2-yl]-1H-imidazol-4-yl}-pyridin-2-ylamine]",230 to 232 °C
2,"Cc1cc(-c2ccc(C(F)(F)F)cc2)nc(-c2nc(-c3ccc(N)nc3)no2)n1 [Example 127, 5-{5-[4-Methyl-6-(4-trifluoromethyl-phenyl)-pyrimidin-2-yl]-[1,2,4]oxadiazol-3-yl}-pyridin-2-ylamine]",216.5 °C
3,"NS(=O)(=O)c1ccc(-c2cccc(-c3nc(-c4ccc(C(F)(F)F)c(F)c4)cc(C(F)(F)F)n3)c2)s1 [Example 461, 5-{3-[4-(3-Fluoro-4-trifluoromethyl-phenyl)-6-trifluoromethyl-pyrimidin-2-yl]-phenyl}-thiophene-2-sulfonic acid amide]",213.5 °C
4,"Cc1cc(-c2ccc(C(F)(F)F)cc2)cc(-c2ccnc(-c3cccc(N)c3)n2)n1 [Example 326, 3-{4-[6-Methyl-4-(4-trifluoromethyl-phenyl)-pyridin-2-yl]-pyrimidin-2-yl}-phenylamine]",167 °C
5,"Cc1cc(-c2ccc(Cl)c(Cl)c2)nc(-c2cccc(-c3ccc(S(N)(=O)=O)s3)c2)n1 [Example 195, 5-{3-[4-(3,4-Dichloro-phenyl)-6-methyl-pyrimidin-2-yl]-phenyl}-thiophene-2-sulfonic acid Amide]",238 °C
6,"Nc1ccc(-c2cccc(-c3nc(-c4ccc(C(F)(F)F)cc4)cc(C(F)(F)F)n3)c2)cc1 [Example 117, 3′-[4-Trifluoromethyl-6-(4-trifluoromethyl-phenyl)-pyrimidin-2-yl]-biphenyl-4-ylamine]",186 °C
7,"Cc1cc(-c2ccc(Cl)c(Cl)c2)nc(-c2ccnc(-c3ccc(S(N)(=O)=O)s3)c2)n1 [Example 196, 5-{4-[4-(3,4-Dichloro-phenyl)-6-methyl-pyrimidin-2-yl]-pyridin-2-yl}-thiophene-2-sulfonic acid amide]",267 °C
8,"NS(=O)(=O)c1cccc(-c2cn(-c3nc(-c4ccc(Cl)cc4)cc(C(F)(F)F)n3)cn2)c1 [Example 177, 3-{1-[4-(4-Chloro-phenyl)-6-trifluoromethyl-pyrimidin-2-yl]-1H-imidazol-4-yl}-benzenesulfonamide]",225 °C
9,"FC(F)(F)c1cc(-c2ccc(Cl)cc2)nc(-c2nc(-c3ccncc3)no2)n1 [Example 28, 4-(4-Chloro-phenyl)-2-(3-pyridin-4-yl-[1,2,4]oxadiazol-5-yl)-6-trifluoromethyl-pyrimidine]",187.5 °C
10,"Cc1cc(-c2ccc(C(F)(F)F)cc2)nc(-c2ccnc(-c3cccc(S(N)(=O)=O)c3)c2)c1 [Example 309, 3-[4-Methyl-6-(4-trifluoromethyl-phenyl)-[2,4′]bipyridinyl-2′-yl]-benzenesulfonamide]",238 °C
11,"NS(=O)(=O)c1cccc(-c2cccc(-c3cc(-c4ccc(C(F)(F)F)cc4)cc(CO)n3)n2)c1 [Example 439, 3-[6′-Hydroxymethyl-4′-(4-trifluoromethyl-phenyl)-[2,2′]bipyridinyl-6-yl]-benzenesulfonamide]",213 °C (dec.)
12,"Cc1cc(-c2ccc(C(F)(F)F)c(C)c2)nc(-c2ccnc(-c3ccc(N)nc3)c2)n1 [Example 131, 4-[4-Methyl-6-(3-methyl-4-trifluoromethyl-phenyl)-pyrimidin-2-yl]-[2,3′]bipyridinyl-6′-ylamine]",188 °C
13,"Nc1ccc(-c2cccc(-c3cc(-c4ccc(C(F)(F)F)cc4)cc(C(F)(F)F)n3)c2)cn1 [Example 232, 5-{3-[6-Trifluoromethyl-4-(4-trifluoromethyl-phenyl)-pyridin-2-yl]-phenyl}-pyridin-2-ylamine]",166 °C
14,"Cc1cc(-c2ccc(C(F)(F)F)c(C)c2)nc(-c2cccc(-c3ccc(N)nc3)c2)n1 [Example 132, 5-{3-[4-Methyl-6-(3-methyl-4-trifluoromethyl-phenyl)-pyrimidin-2-yl]-phenyl}-pyridin-2-ylamine]",153 °C
15,"Cc1cc(-c2ccc(C(F)(F)F)cc2)cc(-c2cccc(-c3cccc(S(=O)(=O)NCCO)c3)n2)n1 [Example 359, N-(2-Hydroxy-ethyl)-3-[6′-methyl-4′-(4-trifluoromethyl-phenyl)-[2,2′]bipyridinyl-6-yl]-benzenesulfonamide]",110 °C (dec.)
16,"Nc1ncc(-c2cccc(-c3cc(-c4ccc(C(F)(F)F)cc4)cc(C(F)(F)F)n3)c2)cn1 [Example 233, 5-{3-[6-Trifluoromethyl-4-(4-trifluoromethyl-phenyl)-pyridin-2-yl]-phenyl}-pyrimidin-2-ylamine]",260 °C
17,"Cc1cc(-c2ccc(C(F)(F)F)cc2)nc(-c2cccc(-c3cccc(S(N)(=O)=O)c3)n2)n1 [Example 419, 3-{6-[4-Methyl-6-(4-trifluoromethyl-phenyl)-pyrimidin-2-yl]-pyridin-2-yl}-benzenesulfonamide]",239 °C (dec.)
